Laboratory results from patent US20230219912A1, “HALOGENATED BENZOTHIADIAZINES FOR THE TREATMENT OF CANCER” (BOARD OF REGENTS OF THE UNIVERSITY OF NEBRASKA, priority 2020, published 2023).
“Also recorded” adds a separate entry of the source.

Legend:
[1] = system: phosphorylated vascular endothelial growth factor receptor-2 (VEGFR2); test: Western blot of pVEGFR2 in VEGF-treated HUVEC cells; format: cell-based, human; settings: 20 μM, VEGF 10 ng/mL, 5 min
Description: Cells were treated with test compounds (20 μM) along with VEGF (10 ng/mL) for 5 min. The DMSO was used as a negative control, whereas DMSO+VEGF was used as a positive control. Cells were lysed using RIPA buffer (10 mmol/L Tris-HCl, 1 mmol/L EDTA, 0.5 mmol/L EGTA, 1% Triton X-100, 0.1% sodium deoxycholate, 0.1% SDS and 140 mmol/L NaCl), supplemented with protease and phosphatase inhibitors (Halt Protease and Phosphatase Inhibitor). Cell lysates were centrifuged, and the supernatants were mixed with appropriate amount of 5×SDS loading buffer. Proteins were resolved on polyacrylamide gel and transferred onto nitrocellulose/PVDF membrane, blocked for 1 hour with 10% milk block prepared in 0.1% Tween 20 in 1×PBS (PBST), and treated with pVEGFR2 primary antibody at 4° C. overnight. The membrane was washed thrice with PBST, 5 minutes each, and treated with secondary antibody for 1 hour. The membrane was further washed three times, 5 minutes each, with PBST and developed using chemiluminescence, and the bands were analyzed using densitometry.

[2] = system: MDA-MB-468 triple negative breast cancer cells; test: MTS cytotoxicity assay in MDA-MB-468 triple negative breast cancer cells; format: cell-based; settings: Homo sapiens, MDA-MB-468; 72 hours; mean ± SD n = 3
Description: The assay was performed as follows.
Derivatives were dosed at 10, 50 and 100 μM for 24, 48 and 72 hours and cell viability measured by MTS assay (FIG. 5).

[3] = system: human embryonic kidney (HEK293) cells; test: MTS cytotoxicity assay in HEK293 cells; format: cell-based; settings: 72 hours, mean ± SD n = 3
Description: The assay was performed as follows. To determine the cell growth inhibition ability of the synthesized compounds the (3-(4,5-dimethylthiazol-2-yl)-5-(3-carboxymethoxyphenyl)-2-(4-sulfophenyl)-2H-tetrazolium) (MTS) assay used according to the manufacturer's recommended protocol. Stock solutions of the synthesized compounds were prepared in DMSO. Cells were seeded at a density of 1×10^5 cells in 96-well plates. After 24 hours, cells were treated at the indicated concentrations of test compounds, limiting the final DMSO concentration to less than 1%. After incubation at 37° C. in an environment of 5% CO2 for 48-72 hours, 10 μL of MTS reagent (CellTiter 96© AQueous One Solution Reagent) was added to each well and incubated at the above mentioned conditions for 2-4 hr. Absorbance was recorded at 490 nm on a BioTek Synergy Mx multimode plate reader and the viability of cells were plotted as percentage of controls.
Cytotoxicity was also evaluated by using the low tumorigenic HEK293 cells at 50 μM concentration.

[4] = system: VEGF-induced proliferation of HUVEC cells; test: VEGF-induced HUVEC proliferation, MTT assay; format: cell-based, human; settings: VEGF 10 ng/mL
Outline: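 HUVECs starved 24 h in 0.1% BSA/0.1% FBS basal medium, then treated 48 h with VEGF (10 ng/mL) alone or with compounds at 20 μM (DMSO <1%). Proliferation by MTT (2 h, 37° C), formazan dissolved in acidified isopropanol, absorbance at 570 nm.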

O=S1(=O)N=C(NCc2ccc(OC(F)(F)F)cc2)Nc2cc(Cl)ccc21 [Compound 30b, 6-chloro-3-((4-(trifluoromethoxy)benzyl)amino)-4H-benzo[e][1,2,4]thiadiazine 1,1-dioxide]
attenuation of pVEGFR2 expression [1]: outperformed the parent compound; also recorded: most potent | IC50 [2]: 48 µM | IC50 [3]: 77.2 µM | inhibition of VEGF-induced HUVEC proliferation (in words) ([4]; 20 μM): suppressed HUVEC proliferation; also recorded: enhanced activity | inhibition at 20 µM ([4]; Homo sapiens, HUVEC, 48 h, 20 μM compound, HUVEC, 48 h, relative to VEGF treated cells, mean ± SEM n = 3, read-out: % Inhibition of Proliferation): 196 ± 11%
